Patent US20220168307A1, “TREATMENT OF SMA” (Hoffmann-La Roche Inc., priority 2019, published 2022)
Entries after “also recorded” stand apart in the source; their conditions may differ.

Legend:
CYP2C9 [1] = biological target: T1, CYP2C9 (Homo sapiens, UniProt P11712); test: Direct inhibition of CYP2C9 (diclofenac) in human liver microsomes
CYP1A2 [2] = biological target: T2, CYP1A2 (Homo sapiens, UniProt P05177); test: biochemical
T2 sequence (P05177 1-516): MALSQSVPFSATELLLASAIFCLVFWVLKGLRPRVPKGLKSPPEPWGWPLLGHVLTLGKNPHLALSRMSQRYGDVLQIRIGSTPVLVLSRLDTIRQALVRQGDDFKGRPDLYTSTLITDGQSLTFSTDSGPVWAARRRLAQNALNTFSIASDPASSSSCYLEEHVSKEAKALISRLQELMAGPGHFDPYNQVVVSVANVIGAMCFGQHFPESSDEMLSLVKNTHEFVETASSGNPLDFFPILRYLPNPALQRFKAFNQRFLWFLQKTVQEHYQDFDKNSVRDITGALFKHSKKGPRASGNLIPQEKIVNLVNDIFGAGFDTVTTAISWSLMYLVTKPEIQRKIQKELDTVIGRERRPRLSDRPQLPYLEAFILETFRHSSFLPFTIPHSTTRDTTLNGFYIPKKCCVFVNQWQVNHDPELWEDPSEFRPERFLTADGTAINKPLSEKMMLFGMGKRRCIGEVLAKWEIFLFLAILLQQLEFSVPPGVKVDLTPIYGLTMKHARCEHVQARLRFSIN

CYP2C9 [3] = biological target: T1, CYP2C9; test: biochemical
CYP1A2 [4] = biological target: T2, CYP1A2; test: Direct inhibition of CYP1A2 (phenacetin) in human liver microsomes
CYP2B6 [5] = biological target: T3, CYP2B6 (Homo sapiens, UniProt P20813); test: in vitro; conditions: pooled human liver microsomes, pH 7.4, probe bupropion
T3 sequence (P20813 1-491): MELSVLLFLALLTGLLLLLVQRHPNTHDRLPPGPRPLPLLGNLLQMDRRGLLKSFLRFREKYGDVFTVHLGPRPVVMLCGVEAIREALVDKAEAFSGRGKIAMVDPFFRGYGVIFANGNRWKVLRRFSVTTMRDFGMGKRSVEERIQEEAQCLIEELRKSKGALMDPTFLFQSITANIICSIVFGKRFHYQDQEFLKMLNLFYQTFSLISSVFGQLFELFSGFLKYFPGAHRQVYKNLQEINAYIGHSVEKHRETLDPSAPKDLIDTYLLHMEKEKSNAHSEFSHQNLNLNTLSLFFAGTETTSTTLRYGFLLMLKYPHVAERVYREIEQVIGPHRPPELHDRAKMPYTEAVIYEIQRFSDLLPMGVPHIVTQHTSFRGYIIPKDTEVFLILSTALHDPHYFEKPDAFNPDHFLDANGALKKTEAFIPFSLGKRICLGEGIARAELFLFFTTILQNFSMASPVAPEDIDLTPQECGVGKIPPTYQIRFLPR

CYP2B6 [6] = biological target: T3, CYP2B6; conditions: risdiplam up to 12.5 μM
CYP2C8 = biological target: T4, CYP2C8 (Homo sapiens, UniProt P10632); test: Direct inhibition of CYP2C8 (amodiaquine) in human liver microsomes
T4 sequence (P10632 1-490): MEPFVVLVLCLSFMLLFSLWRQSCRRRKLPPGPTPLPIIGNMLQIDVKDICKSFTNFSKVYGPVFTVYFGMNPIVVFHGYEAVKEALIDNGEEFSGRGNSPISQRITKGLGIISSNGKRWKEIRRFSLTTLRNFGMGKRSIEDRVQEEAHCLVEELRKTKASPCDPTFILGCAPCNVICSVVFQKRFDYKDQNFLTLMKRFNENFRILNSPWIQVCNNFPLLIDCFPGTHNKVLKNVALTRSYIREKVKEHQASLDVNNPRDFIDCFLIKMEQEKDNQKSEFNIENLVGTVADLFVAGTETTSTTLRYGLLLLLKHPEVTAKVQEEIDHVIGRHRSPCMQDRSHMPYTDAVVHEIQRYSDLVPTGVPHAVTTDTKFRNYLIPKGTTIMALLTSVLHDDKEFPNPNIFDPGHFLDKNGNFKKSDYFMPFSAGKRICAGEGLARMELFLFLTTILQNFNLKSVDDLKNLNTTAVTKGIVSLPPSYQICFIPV

CYP2C9 [7] = biological target: T1, CYP2C9; test: in vitro; conditions: pooled human liver microsomes, pH 7.4, probe diclofenac
CYP2D6 = CYP2D6 (Homo sapiens, UniProt P10635); test: Time-dependent inhibition (IC50 shift) of CYP2D6 in human liver microsomes; format: in vitro ADME; conditions: risdiplam up to 12.5 μM
Method: Donors CMV negative for serology are unm
All incubations were conducted in duplicate.
% remaining=(C+I/C^−I)*100

T1 sequence (P11712 whole entry): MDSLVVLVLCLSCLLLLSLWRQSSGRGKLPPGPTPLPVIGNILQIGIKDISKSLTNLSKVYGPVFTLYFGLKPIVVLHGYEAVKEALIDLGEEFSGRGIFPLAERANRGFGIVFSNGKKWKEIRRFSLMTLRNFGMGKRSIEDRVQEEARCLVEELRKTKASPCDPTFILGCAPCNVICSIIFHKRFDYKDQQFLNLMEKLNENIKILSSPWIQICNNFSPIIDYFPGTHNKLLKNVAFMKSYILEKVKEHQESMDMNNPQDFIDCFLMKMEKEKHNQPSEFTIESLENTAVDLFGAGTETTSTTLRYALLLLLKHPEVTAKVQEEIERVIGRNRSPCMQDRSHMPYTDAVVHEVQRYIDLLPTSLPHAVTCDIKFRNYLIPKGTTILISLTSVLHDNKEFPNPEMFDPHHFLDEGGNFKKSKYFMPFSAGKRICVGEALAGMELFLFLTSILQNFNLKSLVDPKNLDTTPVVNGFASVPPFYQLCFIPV
Chain of CYP2D6 (P10635 whole entry): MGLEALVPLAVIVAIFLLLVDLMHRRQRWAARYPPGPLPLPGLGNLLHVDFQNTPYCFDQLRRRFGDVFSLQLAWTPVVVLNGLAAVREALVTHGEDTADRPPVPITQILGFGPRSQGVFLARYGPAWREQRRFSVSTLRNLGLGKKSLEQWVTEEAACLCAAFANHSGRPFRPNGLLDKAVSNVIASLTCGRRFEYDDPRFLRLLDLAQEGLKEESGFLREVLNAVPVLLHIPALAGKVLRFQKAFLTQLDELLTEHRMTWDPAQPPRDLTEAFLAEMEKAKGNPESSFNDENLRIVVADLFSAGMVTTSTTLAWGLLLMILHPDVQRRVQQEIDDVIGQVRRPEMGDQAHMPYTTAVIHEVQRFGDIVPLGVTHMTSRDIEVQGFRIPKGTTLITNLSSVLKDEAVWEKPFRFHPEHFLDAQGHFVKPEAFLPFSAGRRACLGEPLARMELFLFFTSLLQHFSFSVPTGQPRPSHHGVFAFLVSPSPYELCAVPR

With `Cc1cn2nc(-c3cc(=O)n4cc(N5CCNC6(CC6)C5)ccc4n3)cc(C)c2n1` [risdiplam, 7-(4,7-diazaspiro[2.5]octan-7-yl)-2-(2,8-dimethylimidazo[1,2-b]pyridazin-6-yl)pyrido[1,2-a]pyrimidin-4-one] the “% Control activity at” value (CYP2C9 [1]; direct inhibition, substrate Diclofenac, concentration not given, duplicates) was 82%, the “reversible (direct) inhibition (in words)” value (CYP2C9 [1]; risdiplam up to 12.5 μM) was “did not show any significant reversible or time-dependent inhibition; also recorded: No significant reversible or time-dependent inhibition; also recorded: No significant reversible inhibition; also recorded: low potential to cause direct or time-dependent inhibition” and the IC50 (CYP1A2 [2]) was over 12.5 µM. For the same molecule, the IC50 (CYP2C9 [3]) was over 12.5 µM, the “% Control activity at” value (CYP1A2 [4]; direct inhibition, substrate Phenacetin, concentration not given, duplicates) was 101% and the “reversible (direct) inhibition (in words)” value (CYP1A2 [4]; risdiplam up to 12.5 μM) was “did not show any significant reversible or time-dependent inhibition; also recorded: No significant reversible or time-dependent inhibition; also recorded: No significant reversible inhibition; also recorded: low potential to cause direct or time-dependent inhibition”. For the same molecule, the activity (CYP2B6 [5]) was 88%, the “time-dependent inhibition (in words)” value (CYP2B6 [6]) was “did not show any significant reversible or time-dependent inhibition; also recorded: No significant reversible or time-dependent inhibition; also recorded: No significant time-dependent inhibition; also recorded: low potential to cause direct or time-dependent inhibition” and the “% Control activity at” value (CYP2C8; direct inhibition, substrate Amodiaquine, concentration not given, duplicates) was 91%. For the same molecule, the “reversible (direct) inhibition (in words)” value (CYP2C8; risdiplam up to 12.5 μM) was “did not show any significant reversible or time-dependent inhibition; also recorded: No significant reversible or time-dependent inhibition; also recorded: No significant reversible inhibition; also recorded: low potential to cause direct or time-dependent inhibition”, the activity (CYP2C9 [7]) was 83% and the “time-dependent inhibition (in words)” value (CYP2D6) was “did not show any significant reversible or time-dependent inhibition; also recorded: No significant reversible or time-dependent inhibition; also recorded: No significant time-dependent inhibition; also recorded: low potential to cause direct or time-dependent inhibition”.
